SMILES strings stand for the structures.

The target in data set [1] is T1, UGT1A1 (Rattus norvegicus, UniProt Q64550).
T1 construct: rat liver microsomes (RLMs) were prepared with 6 Sprague-Dawley males (6–8 weeks); from tissue; host or cells: liver microsomes of male Sprague-Dawley rats, prepared in house
T1 sequence (Q64550 30-535): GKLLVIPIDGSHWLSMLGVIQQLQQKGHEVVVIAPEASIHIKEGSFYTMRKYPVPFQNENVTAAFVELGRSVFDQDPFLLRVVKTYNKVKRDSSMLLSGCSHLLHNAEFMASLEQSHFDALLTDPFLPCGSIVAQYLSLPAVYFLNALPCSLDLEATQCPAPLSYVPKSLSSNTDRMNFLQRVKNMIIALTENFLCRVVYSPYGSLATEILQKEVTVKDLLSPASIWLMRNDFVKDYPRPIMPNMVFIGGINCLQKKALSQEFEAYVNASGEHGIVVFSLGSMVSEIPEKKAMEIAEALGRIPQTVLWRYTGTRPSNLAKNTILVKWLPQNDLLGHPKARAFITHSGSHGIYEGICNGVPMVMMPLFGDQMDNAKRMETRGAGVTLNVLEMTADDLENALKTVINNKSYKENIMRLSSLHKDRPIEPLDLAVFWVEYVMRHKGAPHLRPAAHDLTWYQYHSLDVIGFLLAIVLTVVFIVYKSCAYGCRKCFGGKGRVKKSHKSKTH
Briefly: Chemical inhibition assay of PND metabolism in RLM, UGT1A1 inhibitor. Type of data set: in vitro ADME. The conditions noted are these: liver microsomes, pH 7.4, probe PND (2 µM), overall metabolism of PND, bilirubin 100 μM.

For data set [2], the system named is CYP2E1. Briefly: Chemical inhibition assay of PND metabolism in LMs, CYP2E1 inhibitor. Format: in vitro ADME, rat, mouse and human. The conditions noted are these: disulfiram 50 μM (CYP2E1 inhibitor), PND 2 µM, LMs 0.5 mg protein/mL.
The subject of data set [3] is CYP3A4. Briefly: in vitro. The conditions noted are these: male, Sprague-Dawley (rat), Kunming (mouse), human, liver microsomes, probe PND (2 µM).
The target in data set [4] is T2, UGT1A9 (Homo sapiens, UniProt O60656).
T2 construct: Male Mongolia human microsomes (HLM), prepared from 30 male donors (19–78 years old); tissue RILD Liver Disease Research Co., Ltd. (Shanghai, China); host or cells: pooled human liver microsomes, 30 male donors
T2 sequence (O60656 26-530): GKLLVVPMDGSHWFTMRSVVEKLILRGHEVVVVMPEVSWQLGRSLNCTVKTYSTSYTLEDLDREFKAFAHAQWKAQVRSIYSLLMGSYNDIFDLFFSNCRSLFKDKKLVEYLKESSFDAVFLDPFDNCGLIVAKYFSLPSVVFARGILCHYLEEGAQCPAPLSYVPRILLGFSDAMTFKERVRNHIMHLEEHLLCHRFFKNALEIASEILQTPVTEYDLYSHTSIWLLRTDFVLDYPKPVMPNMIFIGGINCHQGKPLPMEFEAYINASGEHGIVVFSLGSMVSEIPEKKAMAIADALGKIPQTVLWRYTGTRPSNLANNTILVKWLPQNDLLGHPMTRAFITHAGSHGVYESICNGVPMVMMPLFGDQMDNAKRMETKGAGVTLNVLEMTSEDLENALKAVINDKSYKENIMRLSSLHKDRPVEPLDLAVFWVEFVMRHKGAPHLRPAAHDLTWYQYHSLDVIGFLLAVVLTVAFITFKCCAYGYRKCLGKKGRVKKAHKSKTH
Briefly: Chemical inhibition assay of PND metabolism in HLM, UGT1A9 inhibitor. Format: in vitro ADME. The note with it: liver microsomes, probe PND (2 µM), overall metabolism of PND, niflumic acid 5 μM.

Data set [5] relates to CYP2C9 (CYP2C6). Briefly: in vitro. The conditions noted are these: male, Sprague-Dawley (rat), Kunming (mouse), human, liver microsomes, probe PND (2 µM).
The target in data set [6] is T3, UGT1A6 (Homo sapiens, UniProt P19224).
T3 construct: Male Mongolia human microsomes (HLM), prepared from 30 male donors (19–78 years old); tissue RILD Liver Disease Research Co., Ltd. (Shanghai, China); host or cells: pooled human liver microsomes, 30 male donors
T3 sequence (P19224 27-532): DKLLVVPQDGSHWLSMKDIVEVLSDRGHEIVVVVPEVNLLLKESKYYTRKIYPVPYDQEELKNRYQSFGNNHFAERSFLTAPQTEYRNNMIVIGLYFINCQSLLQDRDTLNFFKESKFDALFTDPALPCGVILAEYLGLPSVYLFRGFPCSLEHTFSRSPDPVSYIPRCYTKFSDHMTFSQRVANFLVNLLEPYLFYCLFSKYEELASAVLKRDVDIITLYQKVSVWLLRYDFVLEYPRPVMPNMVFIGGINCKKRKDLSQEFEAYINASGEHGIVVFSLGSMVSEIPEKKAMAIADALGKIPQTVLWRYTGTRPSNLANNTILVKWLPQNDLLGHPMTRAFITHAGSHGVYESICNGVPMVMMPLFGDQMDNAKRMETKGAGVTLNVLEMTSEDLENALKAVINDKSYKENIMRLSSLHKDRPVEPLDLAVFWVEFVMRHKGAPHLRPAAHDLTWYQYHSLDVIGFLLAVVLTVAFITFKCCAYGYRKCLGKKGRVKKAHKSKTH
The experiment in a line: Chemical inhibition assay of PND metabolism in human LMs, UGT1A6 inhibitor. Type of data set: in vitro ADME. The conditions noted are these: liver microsomes, probe PND (2 µM), overall metabolism of PND, troglitazone 250 μM.

Data set [7] addresses T4, UGT1A6 (Mus musculus, UniProt Q64435).
T4 construct: Mouse liver microsomes (MLM) were prepared with 10 Kunming males (6–8 weeks); from tissue; host or cells: liver microsomes of male Kunming mice, prepared in house
T4 sequence (Q64435 27-531): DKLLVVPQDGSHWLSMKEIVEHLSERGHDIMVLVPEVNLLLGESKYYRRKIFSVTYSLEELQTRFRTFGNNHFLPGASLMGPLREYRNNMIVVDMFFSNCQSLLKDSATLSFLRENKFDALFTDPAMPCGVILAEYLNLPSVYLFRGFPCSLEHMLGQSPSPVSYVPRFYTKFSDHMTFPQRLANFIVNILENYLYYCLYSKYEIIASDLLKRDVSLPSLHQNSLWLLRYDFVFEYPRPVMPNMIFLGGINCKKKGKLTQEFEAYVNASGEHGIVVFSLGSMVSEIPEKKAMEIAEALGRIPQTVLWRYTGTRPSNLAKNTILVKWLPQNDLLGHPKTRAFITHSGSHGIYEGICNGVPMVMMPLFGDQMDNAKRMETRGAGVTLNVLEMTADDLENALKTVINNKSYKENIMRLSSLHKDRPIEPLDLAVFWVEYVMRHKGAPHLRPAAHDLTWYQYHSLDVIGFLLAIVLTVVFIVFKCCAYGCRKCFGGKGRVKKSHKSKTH
The experiment in a line: Chemical inhibition assay of PND metabolism in MLM, UGT1A6 inhibitor. Format: in vitro ADME. The note with it: liver microsomes, pH 7.4, probe PND (2 µM), overall metabolism of PND, troglitazone 250 μM.

Data set [8] addresses T5, UGT1A6 (Rattus norvegicus, UniProt P08430).
T5 construct: rat liver microsomes (RLMs) were prepared with 6 Sprague-Dawley males (6–8 weeks); from tissue; host or cells: liver microsomes of male Sprague-Dawley rats, prepared in house
T5 sequence (P08430 26-529): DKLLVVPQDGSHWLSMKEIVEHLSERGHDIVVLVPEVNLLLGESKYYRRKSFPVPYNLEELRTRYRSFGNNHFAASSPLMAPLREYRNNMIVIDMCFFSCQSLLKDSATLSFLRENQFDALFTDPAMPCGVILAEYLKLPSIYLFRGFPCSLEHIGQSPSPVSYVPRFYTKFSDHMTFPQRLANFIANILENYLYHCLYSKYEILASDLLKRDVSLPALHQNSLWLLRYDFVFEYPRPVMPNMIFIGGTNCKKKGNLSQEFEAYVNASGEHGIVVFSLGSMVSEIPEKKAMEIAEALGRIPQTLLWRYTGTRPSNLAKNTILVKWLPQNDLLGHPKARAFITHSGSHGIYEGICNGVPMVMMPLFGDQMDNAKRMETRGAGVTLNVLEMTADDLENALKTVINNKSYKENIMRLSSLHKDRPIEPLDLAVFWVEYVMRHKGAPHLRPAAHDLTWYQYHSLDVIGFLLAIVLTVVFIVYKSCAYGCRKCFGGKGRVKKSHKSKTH
The experiment in a line: Chemical inhibition assay of PND metabolism in RLM, UGT1A6 inhibitor. Format: in vitro ADME. The conditions noted are these: liver microsomes, pH 7.4, probe PND (2 µM), overall metabolism of PND, troglitazone 250 μM.

The molecule `C=CC1=C(C)/C(=C/c2[nH]c(Cc3[nH]c(/C=C4\NC(=O)C(C)=C4C=C)c(C)c3CCC(=O)O)c(CCC(=O)O)c2C)NC1=O` [bilirubin] yielded an inhibition at 90 min, 100 μM in data set [1] of 64.3%.

As to `CCN(CC)C(=S)SSC(=S)N(CC)CC` [disulfiram], in data set [2], the “Effect on metabolism of PND in LMs” value is listed as “decreased significantly”. `CC(=O)N1CCN(c2ccc(OCC3COC(Cn4ccnc4)(c4ccc(Cl)cc4Cl)O3)cc2)CC1` (centres unmarked) [ketoconazole]: the inhibition at 2 µM in data set [3] lay within 19 to 48%. `O=C(O)c1cccnc1Nc1cccc(C(F)(F)F)c1` [niflumic acid] came in with an inhibition at 90 min, 5 μM in data set [4] of 36.7%. Take `Nc1ccc(S(=O)(=O)Nc2ccnn2-c2ccccc2)cc1` [sulphafenazole]: the inhibition at 100 µM in data set [5] was 19 to 48%. Consider `Cc1c(C)c2c(c(C)c1O)CCC(C)(COc1ccc(CC3SC(=O)NC3=O)cc1)O2` (centres unmarked) [troglitazone], for which the inhibition at 90 min, 250 μM in data set [6] was 17.3%; in data set [7], 61.8%; in data set [8], 68.6%.

These data come from paper PMC9920254 (Molecules, 2023).
